Experimental data: the CheMixHub viscosity set

Assay: xn = mol fraction of the nth substance listed

CNc1ccccc1 + CCC(=O)O
308.15 K, 101.33 kPa
Settings | viscosity [mPa·s]
x2 = 0.1405 | 1.689
x2 = 0.2649 | 1.817
x2 = 0.3831 | 1.959
x2 = 0.4886 | 2.058
x2 = 0.5912 | 2.143
x2 = 0.6846 | 2.115
x2 = 0.7714 | 1.931
x2 = 0.8525 | 1.631
x2 = 0.8913 | 1.45
x2 = 0.9291 | 1.226
x2 = 0.9645 | 1.053

COC(=O)OC + CCC(C)O
101.3 kPa
Settings | viscosity [mPa·s]
293.15 K, x1 = 0.0505 | 2.908
293.15 K, x1 = 0.0986 | 2.37
293.15 K, x1 = 0.2131 | 1.522
293.15 K, x1 = 0.2801 | 1.235
293.15 K, x1 = 0.4092 | 0.94
293.15 K, x1 = 0.511 | 0.83
293.15 K, x1 = 0.6172 | 0.753
293.15 K, x1 = 0.7072 | 0.696
293.15 K, x1 = 0.7997 | 0.637
293.15 K, x1 = 0.8229 | 0.621
293.15 K, x1 = 0.9518 | 0.595
298.15 K, x1 = 0.0572 | 2.399
298.15 K, x1 = 0.0994 | 1.991
298.15 K, x1 = 0.1958 | 1.354
298.15 K, x1 = 0.3029 | 0.991
298.15 K, x1 = 0.3339 | 0.926
298.15 K, x1 = 0.5075 | 0.756
298.15 K, x1 = 0.6051 | 0.707
298.15 K, x1 = 0.7037 | 0.641
298.15 K, x1 = 0.808 | 0.569
298.15 K, x1 = 0.9046 | 0.531
298.15 K, x1 = 0.9523 | 0.542
303.15 K, x1 = 0.0573 | 1.931
303.15 K, x1 = 0.0842 | 1.728
303.15 K, x1 = 0.1936 | 1.195
303.15 K, x1 = 0.2981 | 0.943
303.15 K, x1 = 0.3926 | 0.809
303.15 K, x1 = 0.4938 | 0.709
303.15 K, x1 = 0.59 | 0.632
303.15 K, x1 = 0.6561 | 0.594
303.15 K, x1 = 0.7945 | 0.549
303.15 K, x1 = 0.8916 | 0.547
303.15 K, x1 = 0.9483 | 0.546
313.15 K, x1 = 0.0498 | 1.512
313.15 K, x1 = 0.1005 | 1.289
313.15 K, x1 = 0.2009 | 0.975
313.15 K, x1 = 0.2952 | 0.795
313.15 K, x1 = 0.4047 | 0.669
313.15 K, x1 = 0.5109 | 0.6
313.15 K, x1 = 0.6072 | 0.561
313.15 K, x1 = 0.6982 | 0.529
313.15 K, x1 = 0.7992 | 0.502
313.15 K, x1 = 0.8977 | 0.486
313.15 K, x1 = 0.9583 | 0.486

ClC(Cl)C(Cl)Cl + CCCC(=O)OCC
viscosity [mPa·s], 101.3 kPa
Settings | 308.15 K | 318.15 K
x2 = 0.0477 | 1.326 | 1.209
x2 = 0.1018 | 1.243 | 1.135
x2 = 0.2004 | 1.11 | 1.019
x2 = 0.2603 | 1.04 | 0.957
x2 = 0.3965 | 0.906 | 0.837
x2 = 0.4979 | 0.824 | 0.764
x2 = 0.6073 | 0.753 | 0.699
x2 = 0.6955 | 0.701 | 0.652
x2 = 0.8023 | 0.649 | 0.605
x2 = 0.9007 | 0.61 | 0.569
x2 = 0.9705 | 0.585 | 0.547

COC(=O)OC + CCCCCC
Settings | viscosity [mPa·s]
298.15 K, 101 kPa, x1 = 0.0961 | 0.2912

COCCOCCOC + CCCCCC
viscosity [mPa·s], 101.33 kPa
Settings | x1 = 0.1017 | x1 = 0.2006 | x1 = 0.3006 | x1 = 0.3974 | x1 = 0.4983 | x1 = 0.4984 | x1 = 0.5986 | x1 = 0.6954 | x1 = 0.8011 | x1 = 0.8957
298.15 K | 0.326 | 0.362 | 0.407 | 0.455 | – | 0.52 | 0.584 | 0.662 | 0.761 | 0.868
303.15 K | 0.31 | 0.344 | 0.385 | 0.43 | – | 0.49 | 0.548 | 0.62 | 0.71 | 0.806
308.15 K | 0.294 | 0.324 | 0.362 | 0.404 | 0.461 | – | 0.512 | 0.576 | 0.657 | 0.75
313.15 K | 0.28 | 0.308 | 0.345 | 0.383 | 0.434 | – | 0.482 | 0.541 | 0.616 | 0.699
318.15 K | 0.268 | 0.285 | 0.326 | 0.363 | 0.41 | – | 0.457 | 0.511 | 0.579 | 0.657

ClC(Cl)C(Cl)Cl + CCCCCC
303.15 K, 101 kPa
Settings | viscosity [mPa·s]
x1 = 0.115 | 0.316
x1 = 0.2303 | 0.363
x1 = 0.2991 | 0.411
x1 = 0.4277 | 0.516
x1 = 0.5521 | 0.633
x1 = 0.6234 | 0.71
x1 = 0.7182 | 0.83
x1 = 0.8039 | 0.966
x1 = 0.8856 | 1.133
x1 = 0.9344 | 1.256
